Data from PMC6369847 (International Journal of Nanomedicine, 2019).
Converted amounts (≈) assume the structure as drawn. Peptide text beside a SMILES is read from it. * marks the point of attachment. Stearoyl = CCCCCCCCCCCCCCCCCC(=O)*

Tests used:
[1] = tested on: MDA-MB-231 cells; test: Cytotoxicity test by MTT assay, MDA-MB-231; type: cell-based; conditions: Homo sapiens, MDA-MB-231, 48 h
[2] = Body weight of mice during the antitumor assay; type: in vivo; conditions: tumor-bearing nude mice
[3] = In vivo pharmacokinetic studies of PTX; design: species or system Sprague Dawley rats
[4] = tested on: MDA-MB-231 tumors; test: H&E staining and immunohistochemical analysis; type: in vivo, nude mice; conditions: tumor sections at 14 days, n=5
[5] = In vivo pharmacokinetic studies of S-HM-3; design: species or system Sprague Dawley rats; conditions: rat, background statement of the abstract
[6] = tested on: HUVECs; test: Transwell cell migration assay; type: cell-based, Human; conditions: 24 hours, Avstin 10 µg/mL, S-HM-3, TSm, HTSm 9 µg/mL, n=3
[7] = In vivo distribution studies of S-HM-3; design: species or system nude mice; conditions: MDA-MB-231 tumor-bearing mice, vein injection, free S-HM-3
[8] = Encapsulation efficiency and drug loading of micelles; type: physicochemical; conditions: S-HM-3 concentration ranging from 0.1 to 0.7 mg/mL; data not shown
[9] = male, Sprague Dawley, rat, plasma, iv, 7 mg/kg

| Compound | IC50 [1] [µg/mL] | toxicity judged from body weight ([2]; regimen of Table 1) | weight loss of mice during the 0–10 days ([2]; regimen of Table 1) | V1 of PTX ([3]; SD rats, i.v. single dose, 7 mg/kg PTX) [L/kg] | CL of PTX ([3]; SD rats, i.v. single dose, 7 mg/kg PTX, 7 mg/kg) [mL/min/kg] | Vd [3, 9] [L/kg] | half-life [3, 9] [h] | antiangiogenesis effect (CD31, microvessel density) [4] | half-life [5] [h] | endothelial cell MI rate (migration inhibition rate) [6] [%] | time at which S-HM-3 in organs reached the peak [7] [min] | time at which S-HM-3 was nearly cleared from organs [7] [min] | body weight of mice during the test period ([2]; regimen of Table 1, 14 days) | apoptosis in tumor cells (positive p53 rate) [4] | encapsulation efficiency of S-HM-3 [8] [%] |
| --- | --- | --- | --- | --- | --- | --- | --- | --- | --- | --- | --- | --- | --- | --- | --- |
| CC(=O)O[C@H]1C(=O)[C@@]2(C)[C@H]([C@H](OC(=O)c3ccccc3)[C@]3(O)C[C@H](OC(=O)[C@H](O)[C@@H](NC(=O)c4ccccc4)c4ccccc4)C(C)=C1C3(C)C)[C@]1(OC(C)=O)CO[C@@H]1C[C@@H]2O [PTX, Paclitaxel] | 1.37 (≈ 1.6 µM) | high toxicity | obvious | 0.62 ± 0.08 | 21.5 ± 2.83 | 3.34 ± 0.5 | 1.79 ± 0.13 | almost the same antiangiogenesis effect | – | – | – | – | – | – | – |
| CCCCCCCCCCCCCCCCCC(=O)N[C@H](C(=O)N[C@H](C(=O)N[C@@H](CCCNC(=N)N)C(=O)N[C@@H](CCCNC(=N)N)C(=O)N[C@@H](C)C(=O)N[C@@H](CC(=O)O)C(=O)N[C@@H](CCCNC(=N)N)C(=O)N[C@@H](C)C(=O)N[C@@H](C)C(=O)N[C@H](C(=O)N1CCC[C@H]1C(=O)NCC(=O)NCC(=O)NCC(=O)NCC(=O)N[C@@H](CCCNC(=N)N)C(=O)NCC(=O)N[C@@H](CC(=O)O)C(=O)O)C(C)C)C(C)C)[C@@H](C)CC [S-HM-3] (Stearoyl-IVRRADRAAVPGGGGRGD-OH; N-terminus and C-terminus assumed) | – | very low toxicity or nontoxic | – | – | – | – | – | almost the same antiangiogenesis effect | 0.417 | 60.55 | 24 | 60 | significantly increased | did not induce significant apoptosis | > 97 |
| Avstin: positive control of the cell migration assay, 10 µg/mL | – | – | – | – | – | – | – | – | – | 69.89 | – | – | – | – | – |
